From patent publication US8551999B2, “Heterocyclic compound and pharmaceutical composition thereof” (Otsuka Pharmaceutical Co., Ltd., priority 2007, dated 2013)

SMILES: Br.CN(C(=O)/C=C/c1cc(F)cc(F)c1)c1ccc(Oc2ccc3c(c2)cc(C(=O)N2CCN(Cc4ccc5c(c4)OCO5)CC2)n3C)nc1 [Example 12, (E)-N-{6-[2-(4-Benzo[1,3]dioxol-5-ylmethylpiperazine-1-carbonyl)-1-methyl-1H-indol-5-yloxy]pyridin-3-yl}-3-(3,5-difluorophenyl)-N-methylacrylamide hydrobromide]
- melting point: 176 to 178 °C

SMILES: Cn1c(C(=O)N2CCN(C3CCOCC3)CC2)cc2cc(Oc3ccc(NS(=O)(=O)c4ccc(Cl)c(Cl)c4)cn3)ccc21 [Example 331, 3,4-Dichloro-N-(6-{1-methyl-2-[4-(tetrahydropyran-4-yl)-piperazine-1-carbonyl]-1H-indol-5-yloxy}pyridin-3-yl)-benzenesulfonamide]
- melting point: 208 to 210 °C

SMILES: Br.Cn1c(C(=O)N2CCN(Cc3ccc4c(c3)OCO4)CC2)cc2ccc(Oc3ccc(NC(=O)c4ccc(C(F)(F)F)cc4)cn3)cc21 [Example 454, N-{6-[2-(4-Benzo[1,3]dioxol-5-ylmethylpiperazine-1-carbonyl)-1-methyl-1H-indol-6-yloxy]pyridin-3-yl}-4-trifluoromethylbenzamide hydrobromide]
- melting point: 264 to 265.6 °C

SMILES: CC(C)Cc1ccc(CN2CCN(C(=O)c3cc4cc(Oc5ccc(N(C)C(=O)c6ccc(C(F)(F)F)cc6)cn5)ccc4n3C)CC2)cc1.O=C(O)/C=C\C(=O)O [Example 416, N-(6-{2-[4-(4-Isobutylbenzyl)piperazine-1-carbonyl]-1-methyl-1H-indol-5-yloxy}pyridin-3-yl)-N-methyl-4-trifluoromethylbenzamide maleate]
- melting point: 147 to 149 °C

SMILES: Br.CC(C)Oc1ccc(CN2CCN(C(=O)c3cc4ccc(Oc5ccc(NC(=O)c6ccc(Cl)c(Cl)c6)cn5)cc4n3C)CC2)cc1 [Example 255, 3,4-Dichloro-N-(6-{2-[4-(4-isopropoxybenzyl)piperazine-1-carbonyl]-1-methyl-1H-indol-6-yloxy}pyridin-3-yl)benzamide hydrobromide]
- melting point: 239.7 to 243.5 °C

SMILES: Cn1c(C(=O)N2CCN(Cc3ccccn3)CC2)cc2cc(Oc3ncc(NC(=O)c4ccc(C(F)(F)F)cc4)cn3)ccc21 [Example 382, N-{2-[1-Methyl-2-(4-pyridin-2-ylmethylpiperazine-1-carbonyl)-1H-indol-5-yloxy]pyrimidin-5-yl}-4-trifluoromethylbenzamide]
- melting point: 181 to 182 °C

SMILES: Br.COc1ccc(CN2CCN(C(=O)c3cc4cc(Oc5ccc(NC(=O)c6cc7cc(Br)ccc7[nH]6)cn5)ccc4n3C)CC2)cc1 [Example 228, 5-Bromo-1H-indole-2-carboxylic acid (6-{2-[4-(4-methoxybenzyl)-piperazine-1-carbonyl]-1-methyl-1H-indol-5-yloxy}pyridin-3-yl)-amide hydrobromide]
- melting point: 263 to 265 °C

SMILES: Br.Cn1c(C(=O)N2CCN(Cc3ccc(OCC(F)(F)F)cc3)CC2)cc2cc(Oc3ccc(NC(=O)c4ccc(C(F)(F)F)cc4)cn3)ccc21 [Example 463, N-[6-(1-Methyl-2-{4-[4-(2,2,2-trifluoroethoxy)benzyl]piperazine-1-carbonyl}-1H-indol-5-yloxy)pyridin-3-yl]-4-trifluoromethyl-benzamide hydrobromide]
- melting point: 236.8 to 237.5 °C

SMILES: Br.CN(C(=O)c1ccc(OC(F)(F)F)cc1)c1ccc(Oc2ccc3cc(C(=O)N4CCN(Cc5ccc(OCC(F)(F)F)cc5)CC4)n(C)c3c2)nc1 [Example 456, N-Methyl-N-[6-(1-methyl-2-{4-[4-(2,2,2-trifluoroethoxy)benzyl]-piperazine-1-carbonyl}-1H-indol-6-yloxy)pyridin-3-yl]-4-tri-fluoromethoxybenzamide hydrobromide]
- melting point: 227.4 to 229.2 °C

SMILES: COc1ccccc1CN1CCN(C(=O)c2cc3cc(Oc4ccc(NC(=O)c5ccc(C(F)(F)F)cc5)cn4)ccc3n2C)CC1.O=C(O)C(=O)O [Example 354, N-(6-{2-[4-(2-Methoxybenzyl)piperazine-1-carbonyl]-1-methyl-1H-indol-5-yloxy}pyridin-3-yl)-4-trifluoromethylbenzamide oxalate]
- melting point: 142 to 144 °C

SMILES: Br.CCOc1cccc(CN2CCN(C(=O)c3cc4cc(Oc5ccc(NC(=O)c6ccc(Cl)c(Cl)c6)cn5)ccc4n3C)CC2)c1 [Example 373, 3,4-Dichloro-N-(6-{2-[4-(3-ethoxybenzyl)piperazine-1-carbonyl]-1-methyl-1H-indol-5-yloxy}pyridin-3-yl)benzamide hydrobromide]
- melting point: 225 to 227 °C

SMILES: Br.Cn1c(C(=O)N2CCN(Cc3ccc(C(F)(F)F)cc3)CC2)cc2ccc(Oc3ccc(NC(=O)c4ccc(Cl)c(Cl)c4)cn3)cc21 [Example 262, 3,4-Dichloro-N-(6-{1-methyl-2-[4-(4-trifluoromethylbenzyl)-piperazine-1-carbonyl]-1H-indol-6-yloxy}pyridin-3-yl)benzamide hydrobromide]
- melting point: 259.4 to 260.7 °C

SMILES: Br.CC(C)Oc1ccc(CN2CCN(C(=O)c3cc4ccc(Oc5ccc(NC(=O)c6ccc(Cl)c(Cl)c6)cn5)cc4n3C)CC2)cn1 [Example 466, 3,4-Dichloro-N-(6-{2-[4-(6-isopropoxypyridin-3-ylmethyl)-piperazine-1-carbonyl]-1-methyl-1H-indol-6-yloxy}pyridin-3-yl)-benzamide hydrobromide]
- melting point: 236.9 to 240.4 °C

SMILES: COc1ccc(C(=O)N2CCN(C(=O)c3cc4cc(Oc5ccc(NC(=O)c6ccc(C(F)(F)F)cc6)cn5)ccc4n3C)CC2)cc1 [Example 240, N-(6-{2-[4-(4-Methoxybenzoyl)piperazine-1-carbonyl]-1-methyl-1H-indol-5-yloxy}pyridin-3-yl)-4-trifluoromethylbenzamide]
- melting point: 195 to 196 °C

SMILES: Br.Cc1ccc(S(=O)(=O)N(C)c2ccc(Oc3ccc4cc(C(=O)N5CCN(Cc6ccc(OCCC(C)C)cc6)CC5)n(C)c4c3)nc2)cc1 [Example 533, 4,N-Dimethyl-N-[6-(1-methyl-2-{4-[4-(3-methylbutoxy)benzyl]-piperazine-1-carbonyl}-1H-indol-6-yloxy)pyridin-3-yl]benzene-sulfonamide hydrobromide]
- melting point: 236.5 to 238.3 °C (dec.)

SMILES: Br.Cn1c(C(=O)N2CCN(Cc3ccccc3)CC2)cc2cc(Oc3ccc(NCc4ccc(Cl)c(Cl)c4)cn3)ccc21 [Example 334, (4-Benzylpiperazin-1-yl)(5-{5-[(3,4-dichlorophenyl)methylamino]-pyridin-2-yloxy}-1-methyl-1H-indol-2-yl)methanone hydrobromide]
- melting point: 209 to 217 °C

SMILES: CC(C)c1ccc(CN2CCN(C(=O)c3cc4cc(Oc5ccc(N(C)C(=O)c6ccc(C(F)(F)F)cc6)cn5)ccc4n3C)CC2)cc1.O=C(O)/C=C\C(=O)O [Example 412, N-(6-{2-[4-(4-Isopropylbenzyl)piperazine-1-carbonyl]-1-methyl-1H-indol-5-yloxy}pyridin-3-yl)-N-methyl-4-trifluoromethylbenzamide maleate]
- melting point: 129 to 131 °C

SMILES: Cc1cc(C(=O)Nc2ccc(Oc3ccc4cc(C(=O)N5CCN(Cc6ccc(OCC(F)(F)F)cc6)CC5)n(C)c4c3)nc2)ccc1Cl.Cl
- melting point: 182.9 °C

SMILES: COc1ccc(CN2CCN(C(=O)c3cc4c(Oc5ccc(N(C)C(=O)c6ccc(C(F)(F)F)cc6)cn5)cccc4n3C)CC2)cc1.O=C(O)C(=O)O [Example 325, N-(6-{2-[4-(4-Methoxybenzyl)piperazine-1-carbonyl]-1-methyl-1H-indol-4-yloxy}pyridin-3-yl)-N-methyl-4-trifluoromethylbenzamide oxalate]
- melting point: 139 to 141 °C

SMILES: Br.Cn1c(C(=O)N2CCN(Cc3ccccn3)CC2)cc2c(Oc3ccc(NC(=O)c4ccc(C(F)(F)F)cc4)cn3)cccc21 [Example 246, N-{6-[1-Methyl-2-(4-pyridin-2-ylmethylpiperazine-1-carbonyl)-1H-indol-4-yloxy]pyridin-3-yl}-4-trifluoromethylbenzamide hydrobromide]
- melting point: 186 to 189 °C

SMILES: Br.Br.COc1ccc(CN2CCN(C(=O)c3cc4cc(Oc5ccc(NC(=O)c6ccc(C(F)(F)F)cn6)cn5)ccc4n3C)CC2)cc1 [Example 230, 5-Trifluoromethylpyridine-2-carboxylic acid (6-{2-[4-(4-methoxy-benzyl)piperazine-1-carbonyl]-1-methyl-1H-indol-5-yloxy}pyridin-3-yl)amide dihydrobromide]
- melting point: 241 to 243 °C

SMILES: Cn1c(C(=O)N2CCN(Cc3ccc(OC(CF)CF)cc3)CC2)cc2ccc(Oc3ccc(NS(=O)(=O)C4=CC=C(Cl)C(C)(Cl)C4)cn3)cc21 (centres unmarked) [Example 506, 3,4-Dichloro-N-[6-(2-{4-[4-(2-fluoro-1-fluoromethylethoxy)-benzyl]piperazine-1-carbonyl}-1-methyl-1H-indol-6-yloxy)pyridin-3-yl]-M-methylbenzenesulfonamide]
- melting point: 157.7 to 160.2 °C

SMILES: Br.Br.Cn1c(C(=O)N2CCN(Cc3ccc(C#N)cn3)CC2)cc2cc(Oc3ccc(NC(=O)c4ccc(Cl)c(Cl)c4)cn3)ccc21 [Example 386, 3,4-Dichloro-N-(6-{2-[4-(5-cyanopyridin-2-ylmethyl)piperazine-1-carbonyl]-1-methyl-1H-indol-5-yloxy}pyridin-3-yl)benzamide dihydrobromide]
- melting point: 216 to 219 °C

SMILES: Br.Br.CN(C(=O)c1ccc(C(F)(F)F)cc1)c1ccc(Oc2ccc3c(c2)cc(C(=O)N2CCN(Cc4ccc(OCC(F)(F)F)cc4)CC2)n3C)nc1 [Example 432, N-Methyl-N-[6-(1-methyl-2-{4-[4-(2,2,2-trifluoroethoxy)benzyl]-piperazine-1-carbonyl}-1H-indol-5-yloxy)pyridin-3-yl]-4-tri-fluoromethylbenzamide dihydrobromide]
- melting point: 211 to 212 °C

SMILES: Br.CCCc1ccc(CN2CCN(C(=O)c3cc4ccc(Oc5ccc(N(C)C(=O)c6ccc(C(F)(F)F)cc6)cn5)cc4n3C)CC2)cc1 [Example 431, N-Methyl-N-(6-{1-methyl-2-[4-(4-propylbenzyl)piperazine-1-carbonyl]-1H-indol-6-yloxy}pyridin-3-yl)-4-trifluoromethyl-benzamide hydrobromide]
- melting point: 255 to 257 °C

SMILES: Br.CCN(C(=O)Nc1ccc(C(F)(F)F)cc1)c1ccc(Oc2ccc3c(c2)cc(C(=O)N2CCN(Cc4ccccc4)CC2)n3C)nc1 [Example 580, 1-{6-[2-(4-Benzylpiperazine-1-carbonyl)-1-methyl-1H-indol-5-yl-oxy]pyridin-3-yl}-1-ethyl-3-(4-trifluoromethylphenyl)urea hydrobromide]
- melting point: 224 to 230 °C
